Test results published in paper PMC7997032, “Organic synthesis and anti-influenza A virus activity of cyclobakuchiols A, B, C, and D” (PLoS ONE, 2021).
Where “and” joins values, the source holds several entries; their conditions need not be identical. Equal values may be shown once.

Test system: MDCK cells
Test: MTT assay (cytotoxicity against MDCK cells)
Assay type: cell-based, canine
Conditions: MDCK cells; for MTT, DMSO as 100 (DMSOを 100として), ave / MTT 72h AVE (DMSO = 100): 72h; for MTT, DMSO as 100 (DMSOを 100として), ave: mean of 5 wells (200409 #1 and #3); for MTT 72h AVE (DMSO = 100): summary AVE; for MTT 24h, AVE (DMSO as 100): 0.78 uM, relative to DMSO = 100; for MTT 24h, AVE (DMSO as 100) / MTT 24h, 570-650nm, DMSO as 100, ave: mean of 5 wells from 3 experiments; for MTT 24h, 570-650nm, DMSO as 100, single replicate: individual wells (200331; 200403 #2 1,2; 200403 #3 1,2); for 570-650nm (MTT absorbance, single wells) / 570-650nm ave (mean MTT absorbance of 5 wells) / MTT absorbance with DMSO as 100 (DMSOを 100として), single wells: MTT 72h; for 570-650nm (MTT absorbance, single wells): experiments #1-#3, duplicate wells; for MTT absorbance with DMSO as 100 (DMSOを 100として), single wells: relative to mean of DMSO
Description: 1–5 (0.8–100 μM) were prepared in DMSO (100 μM, 1%; 50 μM, 0.5%; 25 μM, 0.25%; 12.5 μM, 0.125%; 6.3 μM, 0.063%; 3.1 μM, 0.031%; 1.6 μM, 0.016%; 0.8 μM, 0.008%) and mixed with infection medium (DMEM supplemented with 1% bovine serum albumin (BSA; Wako), P/S and 4 mM L-glutamine). The resulting mixture was added to the cells and incubated for 24 or 72 h at 37°C in the presence of 5% CO2. After incubation, cell viability was determined using an MTT cell count kit (Nacalai Tesque) according to the manufacturer’s instructions, as previously described.

[1] = 3.13uM (3.125uM in summary block)

SMILES | MTT, DMSO as 100 (DMSOを 100として), ave (0.78uM) | MTT, DMSO as 100 (DMSOを 100として), ave (1.56uM) | MTT 72h AVE (DMSO = 100) (6.25 (uM)) | MTT 72h AVE (DMSO = 100) (12.5 (uM)) | MTT 72h AVE (DMSO = 100) (25 (uM)) | MTT 72h AVE (DMSO = 100) (50 (uM)) | MTT 72h AVE (DMSO = 100) (100 (uM)) | MTT 24h, AVE (DMSO as 100) | MTT 24h, 570-650nm, DMSO as 100, single replicate (1.56uM) | MTT 24h, 570-650nm, DMSO as 100, ave (1.56uM) | MTT 24h, 570-650nm, DMSO as 100, single replicate (3.125uM) | MTT 24h, 570-650nm, DMSO as 100, ave (3.125uM) | MTT 24h, 570-650nm, DMSO as 100, single replicate (6.25uM) | MTT 24h, 570-650nm, DMSO as 100, ave (6.25uM) | MTT 24h, 570-650nm, DMSO as 100, single replicate (12.5uM) | MTT 24h, 570-650nm, DMSO as 100, ave (12.5uM) | MTT 24h, 570-650nm, DMSO as 100, single replicate (25uM) | MTT 24h, 570-650nm, DMSO as 100, ave (25uM) | MTT 24h, 570-650nm, DMSO as 100, single replicate (50uM) | MTT 24h, 570-650nm, DMSO as 100, ave (50uM) | other results
C=C[C@@](C)(/C=C/c1ccc(O)cc1)CCC=C(C)C [(+)-(S)-baku.] | 101.639 | 110.926 | 135.974 | 116.119 | 164.273 | 107.359 | 28.7987 | 106.986 | 103.696 and 92.7462 and 106.461 and 104.983 and 94.4526 | 100.468 | 107.294 and 97.5488 and 102.772 and 101.94 and 95.2685 | 100.964 | 108.582 and 98.5976 and 113.546 and 113.49 and 101.426 | 107.128 | 102.57 and 93.2171 and 103.913 and 112.439 and 104.302 | 103.288 | 108.875 and 109.835 and 96.176 and 115.944 and 106.769 | 107.52 | 119.708 and 122.77 and 91.784 and 117.912 and 113.767 | 113.188 | MTT 72h AVE (DMSO = 100) (3.13 (uM)): 132.176; MTT 24h, 570-650nm, DMSO as 100, single replicate (100uM): 79.067 and 84.0157 and 140.292 and 89.6781 and 39.1391; MTT 24h, 570-650nm, DMSO as 100, ave (100uM): 86.4384; 570-650nm (MTT absorbance, single wells) (0.78uM): 0.9216 and 1.0625 and 0.5565 and 0.8595 and 0.8044 and 0.7519; 570-650nm (MTT absorbance, single wells) (1.56uM): 0.9826 and 0.8065 and 0.7089 and 0.7456 and 0.6067 and 0.9846; 570-650nm ave (mean MTT absorbance of 5 wells) (3.125uM): 0.8903; MTT absorbance with DMSO as 100 (DMSOを 100として), single wells (3.125uM): 116.345 and 146.749 and 122.432 and 152.375 and 122.981; 570-650nm (MTT absorbance, single wells) [1]: 0.8284 and 0.7837 and 0.9885 and 0.8247 and 1.0264 and 0.8069; 570-650nm ave (mean MTT absorbance of 5 wells) (6.25uM): 0.9301; 570-650nm (MTT absorbance, single wells) (6.25uM): 0.9089 and 0.9123 and 0.7679 and 0.9049 and 1.1563 and 0.9272; MTT absorbance with DMSO as 100 (DMSOを 100として), single wells (6.25uM): 133.377 and 112.266 and 132.295 and 169.05 and 132.88; 570-650nm ave (mean MTT absorbance of 5 wells) (12.5uM): 0.9243; 570-650nm ave (mean MTT absorbance of 5 wells) (25uM): 1.2355; 570-650nm (MTT absorbance, single wells) (25uM): 1.2252 and 1.1953 and 1.2444 and 1.2282 and 1.1748 and 1.3049; MTT absorbance with DMSO as 100 (DMSOを 100として), single wells (25uM): 165.457 and 163.303 and 156.203 and 173.501 and 162.904; 570-650nm ave (mean MTT absorbance of 5 wells) (50uM): 0.9798; 570-650nm ave (mean MTT absorbance of 5 wells) (100uM): 0.2711; 570-650nm (MTT absorbance, single wells) (100uM): 0.1982 and 0.2036 and 0.3213 and 0.2978 and 0.3355 and 0.2029; MTT absorbance with DMSO as 100 (DMSOを 100として), single wells (100uM): 34.1264 and 31.6304 and 35.6346 and 21.5507 and 21.0515
C=C[C@]1(C)CC[C@H](C(=C)C)[C@@H](c2ccc(O)cc2)C1 [Cyclo. A] | 105.716 | 110.791 | 127.594 | 109.498 | 139.303 | 115.79 | 76.9772 | 98.7342 | 96.4276 and 83.3373 and 92.051 and 113.855 and 70.8632 | 91.3068 | 90.7466 and 86.7485 and 103.011 and 110.013 and 65.2713 | 91.158 | 105.57 and 88.5259 and 94.0239 and 117.378 and 78.8606 | 96.8717 | 102.53 and 101.147 and 92.3748 and 125.129 and 78.3815 | 99.9126 | 98.9543 and 93.1175 and 86.0556 and 130.26 and 81.3877 | 97.9551 | 112.693 and 118.709 and 75.6574 and 146.7 and 98.6391 | 110.48 | MTT, DMSO as 100 (DMSOを 100として), ave (3.125uM): 135.974; MTT 24h, 570-650nm, DMSO as 100, single replicate (100uM): 18.7526 and 22.4148 and 109.83 and 20.6307 and 19.4099; MTT 24h, 570-650nm, DMSO as 100, ave (100uM): 38.2076; 570-650nm (MTT absorbance, single wells) (0.78uM): 0.7522 and 1.0518 and 0.8482 and 0.7789 and 0.8023 and 0.8685; 570-650nm (MTT absorbance, single wells) [1]: 0.6647 and 0.8265 and 0.8832 and 1.0096 and 1.017 and 1.0051; 570-650nm ave (mean MTT absorbance of 5 wells) (6.25uM): 0.8727; 570-650nm (MTT absorbance, single wells) (6.25uM): 0.8664 and 0.8077 and 0.726 and 1.0037 and 0.9599 and 0.9185; MTT absorbance with DMSO as 100 (DMSOを 100として), single wells (6.25uM): 118.085 and 106.14 and 146.74 and 140.336 and 126.667; 570-650nm ave (mean MTT absorbance of 5 wells) (12.5uM): 0.8716; 570-650nm (MTT absorbance, single wells) (12.5uM): 0.7966 and 0.8514 and 0.5539 and 1.0521 and 0.9774 and 0.9778; MTT absorbance with DMSO as 100 (DMSOを 100として), single wells (12.5uM): 69.5889 and 132.18 and 122.795 and 122.845 and 100.08; 570-650nm ave (mean MTT absorbance of 5 wells) (25uM): 1.0477; 570-650nm (MTT absorbance, single wells) (25uM): 0.9324 and 1.0073 and 0.9924 and 1.0024 and 1.1748 and 1.1365; MTT absorbance with DMSO as 100 (DMSOを 100として), single wells (25uM): 131.951 and 133.28 and 156.203 and 151.11 and 123.973; 570-650nm ave (mean MTT absorbance of 5 wells) (50uM): 1.057; 570-650nm (MTT absorbance, single wells) (50uM): 1.0423 and 1.105 and 0.762 and 0.9117 and 1.3276 and 1.24; MTT absorbance with DMSO as 100 (DMSOを 100として), single wells (50uM): 83.4959 and 99.8992 and 145.471 and 135.873 and 114.21; 570-650nm ave (mean MTT absorbance of 5 wells) (100uM): 0.7247
